Test results from EP2108954A1, “A test system for detecting intracellular cyclic nucleotide level and methods and uses thereof” (Max-Planck-Gesellschaft zur Förderung der Wissenschaften …, priority 2008, dated 2009).

Biological target: T1, Or22a and Or83b (Drosophila melanogaster, UniProt P81909+Q9VNB5)
T1 construct: expressed in transfected cells; host or cells: HEK293
T1 sequence (P81909 1-397): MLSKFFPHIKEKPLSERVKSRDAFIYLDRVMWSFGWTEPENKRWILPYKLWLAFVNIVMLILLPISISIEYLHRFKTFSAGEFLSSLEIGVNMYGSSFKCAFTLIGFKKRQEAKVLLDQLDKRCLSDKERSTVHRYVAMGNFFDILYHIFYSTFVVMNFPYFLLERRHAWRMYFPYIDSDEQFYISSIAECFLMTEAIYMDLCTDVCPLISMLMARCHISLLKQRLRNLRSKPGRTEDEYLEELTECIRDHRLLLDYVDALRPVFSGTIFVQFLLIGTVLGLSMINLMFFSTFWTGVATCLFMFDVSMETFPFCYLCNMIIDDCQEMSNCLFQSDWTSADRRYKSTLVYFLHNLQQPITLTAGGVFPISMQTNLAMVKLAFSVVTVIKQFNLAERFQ
T1 sequence (Q9VNB5 1-486): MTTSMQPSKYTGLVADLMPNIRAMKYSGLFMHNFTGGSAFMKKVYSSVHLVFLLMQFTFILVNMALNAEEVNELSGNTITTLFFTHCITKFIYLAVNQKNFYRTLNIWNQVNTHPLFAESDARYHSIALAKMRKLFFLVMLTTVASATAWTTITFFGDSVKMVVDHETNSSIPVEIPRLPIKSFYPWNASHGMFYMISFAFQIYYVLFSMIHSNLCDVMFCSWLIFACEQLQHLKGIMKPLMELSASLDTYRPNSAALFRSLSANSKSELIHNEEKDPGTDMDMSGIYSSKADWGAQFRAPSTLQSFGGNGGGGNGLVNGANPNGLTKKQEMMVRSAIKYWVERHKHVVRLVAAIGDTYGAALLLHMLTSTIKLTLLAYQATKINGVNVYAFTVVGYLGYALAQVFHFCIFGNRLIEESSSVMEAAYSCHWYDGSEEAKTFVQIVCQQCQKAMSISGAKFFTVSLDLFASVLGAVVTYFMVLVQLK
Assay: Outside-out patch recording from HEK293 cells coexpressing Or22a and Or83b
Type: cell-based
Conditions: Etb 100 nM, 1 s, -60 mV; for Ii Peak size / Ii Peak time / Ii Recov. / Im Latency / Im Peak size / Im Peak time / Im Recov.: Or22a C-terminal GFP fusion protein
Protocol: HEK293 cells were cultured as described by Wicher and colleagues (Wicher et al., J. Biol. Chem. 281, 3227-36 (2006)). In brief, HEK293 cells were cultured at a density of ∼2*10^4 per 35-mm dish and transfected with 1 µg pcDNA3-DOR22a-GFP and 1 µg pcDNA3-DOR83b-GFP (Neuhaus, et al., Nat. Neurosci. 8, 15-17 (2005); DNAs were a generous gift of Dr. E. Neuhaus and Dr. H. Hatt) using Roti-Fect transfection kit (Roth, Karlsruhe, Germany). In some experiments we transfected cells with pcDNA3-DOR22a-GFP or pcDNA3-DOR83b-GFP alone. We also examined the properties of DOR47a, which was cloned, using standard molecular biology methods into a pcDNA3.1(-) expression vector. To test for putative G-protein coupling, cells were transfected with the respective OR-DNA together with 1.5 µg hHCN2/pcDNA3 (provided by M. Biel, Munich, Germany), with 1 µg hKCNQ4/pcDNA3.1 or with 1 µg hCNGA2/pCMV6-XL4 (Origene, Rockville, MD, USA).
Ion currents in HEK293 cells were measured with the patch-clamp technology as described (Wicher et al, J. Biol. Chem. 281, 3227-36 (2006)). In brief, ion currents in HEK293 cells were measured at room temperature using whole-cell patch-clamp with appropriate compensation of series resistance and of capacitive currents. Additional experiments were performed in the outside-out configuration. Current measurements and data acquisition were performed using an EPC9 patch-clamp amplifier controlled by PatchMaster software (both HEKA Elektronik, Lambrecht, Germany). Patch-clamp pipettes were fabricated from borosilicate capillaries. Pipettes for whole-cell recordings had resistances of 2-4 MΩ for excised-patch recordings the pipette resistance was up to 15 MΩ.
The standard pipette solution contained (in mM) 140 KCl, 4 NaCl, 2.2 CaCl2, 2 Mg-ATP, 0.05 Na-GTP, 5 EGTA, 10 HEPES (pH 7.3), and the standard bath solution contained (in mM) 135 NaCl, 5 KCI, 1 CaCl2, 1 MgCl2, 10 HEPES, 10 glucose (pH 7.4). To differentiate between ionotropic and metabotropic pathways of receptor activation (Fig. 2a-d) the pipette solution contained either 2 mM ATP plus 2 mM GTP or 2 mM ADP plus 2 mM GDP (both for whole-cell and outside-out configuration). For the preparation of Cl^--free solutions the chloride salts were substituted by gluconate salts. The pipette Cs^+ solution contained (in mM) 140 CsCl, 1 Mg-ATP, 10 EGTA, 10 HEPES (pH = 7.3), and the Cs^+ bath solution contained (in mM) 140 CsCl, 15 glucose, 15 HEPES (pH = 7.4). The Ca^2+-free bath solution contained (in mM) 140 NaCl, 15 glucose, 15 HEPES, and the Na^+-free bath solution contained (in mM) 140 NMDG-Cl, 10 CaCl2, 10 glucose, 15 HEPES.
With the exception of GDP-γ-S, which was applied via the patch pipette, all substances were applied to the bath using either a bath perfusion system (BPS4 from ALA, New York, USA) or a rapid solution changer (RSC160 from Biologic, Claix, France) which were controlled by the PatchMaster software (HEKA Elektronik).

CCCC(=O)OCC [Etb, ethyl butyrate]
latency of Ii: < 0.5 s
Ii Peak size (ADP and GDP (-)): 1.6 ± 0.3 pA
Ii Peak time (ADP and GDP (-)): 1.38 ± 0.23 s
Ii Recov. (ADP and GDP (-)): 4.5 ± 1.2 s
Im Latency (ADP and GDP (-)): 11 ± 3 s
Im Peak size (ADP and GDP (-)): 0.5 ± 0.2 pA
Im Peak time (ADP and GDP (-)): 36 ± 8 s
Im Recov. (ADP and GDP (-)): 58 ± 9 s
Ii Peak size (ATP and GTP (+)): 1.3 ± 0.3 pA
Ii Peak time (ATP and GTP (+)): 1.13 ± 0.11 s
Ii Recov. (ATP and GTP (+)): 5.2 ± 1.1 s
Im Latency (ATP and GTP (+)): 10 ± 2 s
Im Peak size (ATP and GTP (+)): 1.7 ± 0.4 pA
Im Peak time (ATP and GTP (+)): 33 ± 4 s
Im Recov. (ATP and GTP (+)): 45 ± 7 s
